How the values were obtained:
Caco-2 cell monolayers [1] = settings: pH 7.4
Description: (§1) The Center of Cellular Resources at the Chinese Academy of Sciences (Shanghai, China) provided the human colon adenocarcinoma cell line Caco-2, and the experiment utilized 15–30 generations of these cells. DMEM enriched with 15% FBS, 1% non-essential amino acids, 1% Penicillin-Streptomycin Solution (×100), and 1% sodium pyruvate was utilized to cultivate cells at 37°C in a humidified atmosphere of 5% CO2. The cells were separated from flasks when they achieved the anticipated confluence threshold (70%–80%), and they were then inoculated in 12-well plates at a density of 2–5 × 10^5 cells/cm^2 in a polycarbonate Transwell® (pore size: 0.4 µm; filter area: 1.12 cm^2). In the first week, the culture media was switched every 2 days.
(§2) Caco-2 monolayers were pre-cultured in HBSS for 15 min at 37°C after being rinsed two times with preheated Hanks' balanced salt solution (HBSS, pH = 7.4). The donor side was supplemented with DEDM (25, 50, and 100 μM) and EDM (2.5, 5, and 10 μM), and the receiver chamber was filled with the corresponding volume of HBSS medium. For 120 min, the plate was incubated at 37°C. At 0, 30, 45, 60, 90, and 120 min, a 0.5 mL aliquot of each receiver chamber’s sample was taken, and 0.5 mL of HBSS was added to keep the volume constant. By using high-performance liquid chromatography (HPLC), the samples were examined. The sample (300 μL) taken from the receiver chamber was mixed with 300 μL of acetonitrile, and the combination was centrifuged for 10 min at 13,000 rpm. Lastly, a 100 µL aliquot of the supernatant was injected into the HPLC for examination.
(§3) Two drugs were quantitatively determined using an Agilent 1,260 HPLC apparatus (United States). A C18 column (1.8 μm, 3.0 × 150 mm; Agilent Technologies, Santa Clara, CA, United States) was used for the separation, with a column temperature of 25°C. The mobile phase comprised both A (water) and B (acetonitrile). The ratio between A and B was 70: 30 with a flow rate of 1 mL per minute. For EDM or DEDM, 20 μL samples were injected and analyzed at 290 nm or 344 nm, respectively. Acetonitrile was used to create the standard stock solutions for EDM and DEDM, respectively. By serially diluting standard stock solutions with HBSS, working solutions were made. The effective concentrations were 0.04–2.5 μg/mL for EDM and 0.23–7.5 μg/mL for DEDM, respectively. These samples were stored at 4°C before being used.
(§4) Eqs 1, 2 were used to determine the apparent permeability coefficients (Papp) and efflux ratio (ER) of marker drugs: Papp=dQ/dtC0A (1) where dQ/dt is the cumulative transport rate (M/min), C0 is the initial concentration of each marker drug, and A is the surface area of the filters. ER=PappBL−AP/PappAP−BL (2)
(§5) Data for transport experiments are presented as the mean ± SD of six independent experiments.

Caco-2 cell monolayers [2] = test: Caco-2 cell transport assay (Papp, efflux ratio); settings: Caco-2 monolayers
Description: as §1, §2, §3, §4, §5

Caco-2 cells = test: Cell viability assay (MTT), nontoxic concentration; assay type: cell-based, human; settings: 48 h
Description: The cytotoxicity of EDM and DEDM was assessed in Caco-2 cells using the aforementioned MTT test. These alkaloids were produced as solutions in DMSO and then diluted in cell culture media. Inoculating Caco-2 cells (1 × 10^4cells/well) in 96-well plates with 200 μL of media. After additional 48 h of incubation with EDM and DEDM (final test alkaloids concentrations ranged from 0.4 to 200 μM, and DMSO was less than 0.05%), the medium was discarded. To each well, an aliquot of 190 μL freshly prepared DMEM (serum-free) having 10.0 μL MTT (5 mg/mL) was added. The medium in every well was then removed from the plate after a further 4 h at 37°C of incubation. In 100 μL of DMSO, the purple formazan product was dissolved. Using a microplate reader, the ratio of absorbance (treated to untreated cells) at 490 nm was employed to measure cell viability.

in vitro = settings: human, Caco-2, pH 7.4
Description: as §1, §2, §3, §4, §5

[3] = design: method as in Lin et al., 2012; settings: ref Lin et al., 2012; cited from earlier work
[4] = Tissue distribution and PK after tail vein injection; assay type: in vivo, mice
Description: The mixture was then transferred to a sterile centrifuge tube after being repeatedly ground for 30 min with a tiny amount of ordinary saline added. After that, saline was added and ultrasonically processed for 1 h. In a vacuum freeze drier, the suspension was freeze-dried for 30 h. To make the injection, the freeze-dried powder was ultimately redissolved in regular saline. After acclimatization, all mice were acclimated before being randomly placed into four groups of three each: EDM (H) group, EDM (L) group, DEDM (H) group, DEDM (L) group. […] Supernatant plasma from the collected sample was transferred into another tube and kept at −80°C until analysis after being centrifuged at 3,000 rpm for 10 min. Immediately after blood was obtained, the mice were dissected. Saline was injected into the heart until the liver turned white. […] The calibration standards, tissue samples, and plasma samples were pretreated with acetonitrile for protein precipitation. […] To remove the denatured protein, the mixture was vortexed for 1 min and then centrifuged at 16,500 rpm for 10 min. The supernatant was finally injected into the LC-MS/MS in an aliquot of 100 µL for analysis. […] Using an isocratic elution, the EDM and DEDM were analyzed. […] With a flow rate of 0.3 mL/min, the ratio between A and B was 20: 80 for 4 min. The column temperature was kept at 35°C. Prior to injection, samples were transferred in an auto-sampler at a temperature of 4°C and 5 µL was the injection volume. […] The ion source was electrospray ionization (ESI) and adopts positive ion mode. The scan mode was multiple reaction monitoring (MRM). The operating conditions for the EDM and DEDM were 4000 V capillary voltage. […] Acetonitrile was used to prepare standard stock solutions for each type of EDM and DEDM individually. By diluting the standard stock solutions serially with acetonitrile, working standards for the EDM and DEDM were made. The calibration curve samples were acquired by spiking the series working standard solutions (10 μL) into a tube and evaporating the solvent, and then adding blank mouse tissue homogenate or plasma (100 μL). […] DEDM is used as an internal standard compound when detecting EDM. Meanwhile, when DEDM is detected, EDM is used as the internal standard compound. The final concentration of the internal standard compound is 10 ng/mL. […] For the Non-compartmental PK analysis, Thermo Kinetica (Version 5.0, Thermo Electron Corporation, Waltham, MA) was employed. Based on observed data, the time when the maximum tissue concentration was reached (Tmax) and the maximum tissue concentration (Cmax) were assessed. […] Additionally, the mean residence time (MRT) was computed. PK parameters are reported as the mean of […]. Linear and non-linear regressions were analyzed in Microsoft Excel 2016® (United States).

| SMILES | Papp (Caco-2 cell monolayers [1]) | bidirectional transport comparison, secretory (basolateral→apical) vs absorptive (apical→basolateral) permeability (Caco-2 cell monolayers [2]) | Nontoxic concentration (Caco-2 cells; Caco-2 cells, MTT) | Nontoxic concentration (Caco-2 cells; human) | Papp at 120 min (in vitro) | permeability class (Caco-2 cell monolayers [2]; from Papp level) | oral bioavailability [3] | AUC0-t ([4]; Kindy, 10 mg/kg tail vein, mice, average) | time to maximum plasma concentration (Cmax) ([4]; mouse, in vivo) | Tmax ([4]; mouse, in vivo, iv, 5 mg/kg) | Tmax ([4]; mouse, in vivo, iv, 10 mg/kg, Tmax) | half-life ([4]; mouse, in vivo, iv, Lung, 5 mg/kg tail vein, mice, average) | Tmax ([4]; mouse, in vivo, time to peak concentration in different tissues) |
| --- | --- | --- | --- | --- | --- | --- | --- | --- | --- | --- | --- | --- | --- |
| O=c1c2cccc(O)c2nc2n1CCc1c-2[nH]c2ccccc12 [1-HRUP, 1-hydroxyrutaecarpine] | ≥ 1 ×10⁻⁶ cm/s | nearly comparable | 100 µM | – | – | – | – | – | – | – | – | – | – |
| COc1ccc2c(OC)c3ccoc3nc2c1 [EVT, evolitrine] | – | nearly comparable | – | 100 µM | ~10 ×10⁻⁶ cm/s | – | – | – | – | – | – | – | – |
| O=c1c2ccccc2nc2n1CCc1c-2[nH]c2ccccc12 [RUP, rutaecarpine] | – | more than twice as high in the secretory direction | – | 100 µM | ≥ 1 ×10⁻⁶ cm/s | – | – | – | – | – | – | – | – |
| C[n+]1c2n(c(=O)c3ccccc31)CCc1c-2[nH]c2ccccc12 [dehydroevodiamine] | – | nearly comparable | – | 100 µM | 10 ×10⁻⁶ cm/s | high permeability | 15.35% | 1.87 µg·h/g | ≤ 15 min | 45 min | 15 min | 107 min | 15 min |

Source: PMC10117637 (Frontiers in Pharmacology, 2023)
